Laboratory results from patent US20200339625A1, “NOVEL RADIOMETAL-BINDING COMPOUNDS FOR DIAGNOSIS OR TREATMENT OF PROSTATE SPECIFIC MEMBRANE ANTIGEN-EXPRESSING CANCER” (PROVINCIAL HEALTH SERVICES AUTHORITY, priority 2017, published 2020).
Values belong to the compound of their own block, whether it stands above or below them.

Columns and labels:
[1] = system: mice bearing LNCaP tumor xenografts; test: PET/CT imaging of 68Ga-labeled compounds; assay type: in vivo; settings: for change of tumor uptake from 1 h to 3 h post-injection: PET/CT images; for blood retention (qualitative): PET/CT images at 1 h and 3 h post-injection, comparison within the figure
Method: 2.17 PET/CT Imaging and Biodistribution
(§1) Imaging and biodistribution experiments were performed using NODSCID 1L2RyKO male mice. Mice were anesthetized by inhalation with 2% isoflurane in oxygen, and implanted subcutaneously with 1×10^7 LNCaP cells behind left shoulder. Mice were imaged or used in biodistribution studies when the tumor grew up to reach 5-8 mm in diameter during 5-6 weeks.
PET imaging experiments were conducted using Siemens Inveon micro PET/CT scanner. Each tumor bearing mouse was injected 6-8 MBq of 68Ga-labeled tracer through the tail vein under anesthesia (2% isoflurane in oxygen). The mice were allowed to recover and roam freely in their cage. After 50 min, the mice were sedated again with 2% isoflurane in oxygen inhalation and positioned in the scanner. A 10-min CT scan was conducted first for localization and attenuation correction after segmentation for reconstructing the PET images. Then, a 10-min static PET imaging was performed to determined uptake in tumor and other organs. The mice were kept warm by a heating pad during acquisition. For imaging studies acquired at 3 h post-injection (p.i.), the mice were placed in the micro PET/CT scanner at 170 min p.i. Then, the CT acquisitions were conducted as described above, a 15-min static PET imaging was performed to determined uptake in tumor and other organs.

[2] = system: mice bearing PSMA-expressing LNCAP cancer xenografts; test: Biodistribution of 68Ga-labeled compounds; assay type: in vivo
Method: as §1
For biodistribution studies, the mice were injected with the radiotracer as described above. At predetermined time points (1 or 3 h), the mice was anesthetized with 2% isoflurane inhalation, and euthanized by CO2 inhalation. Blood was withdrawn immediately from the heart, and the organs/tissues of interest were collected. The collected organs/tissues were weighed and counted using an automatic gamma counter. The uptake in each organ/tissue was normalized to the injected dose using a standard curve, and expressed as the percentage of the injected dose per gram of tissue (% ID/g).

- change of tumor uptake from 1 h to 3 h post-injection [1]: uptake in tumors increases over time
- blood retention (qualitative) [1]: some extent of blood retention
- Adrenal glands uptake ([2]; 1 h post-injection): 4.20 ± 1.21 % ID/g
- Blood uptake ([2]; 1 h post-injection): 26.7 ± 3.02 % ID/g
- Bone uptake ([2]; 1 h post-injection): 1.04 ± 0.26 % ID/g
- Brain uptake ([2]; 1 h post-injection): 0.36 ± 0.06 % ID/g
- Fat uptake ([2]; 1 h post-injection): 2.13 ± 0.57 % ID/g
- Heart uptake ([2]; 1 h post-injection): 6.09 ± 0.97 % ID/g
- Intestine uptake ([2]; 1 h post-injection): 1.64 ± 0.27 % ID/g
- Kidneys uptake ([2]; 1 h post-injection): 14.7 ± 2.13 % ID/g
- Lacrimal uptake ([2]; 1 h post-injection): 0.69 ± 0.26 % ID/g
- Liver uptake ([2]; 1 h post-injection): 3.87 ± 1.00 % ID/g
- Lungs uptake ([2]; 1 h post-injection): 10.2 ± 2.20 % ID/g
- Muscle uptake ([2]; 1 h post-injection): 1.37 ± 0.17 % ID/g
- Pancreas uptake ([2]; 1 h post-injection): 2.00 ± 0.17 % ID/g
- Salivary uptake ([2]; 1 h post-injection): 3.90 ± 0.70 % ID/g
- Seminal uptake ([2]; 1 h post-injection): 1.31 ± 0.38 % ID/g
- Spleen uptake ([2]; 1 h post-injection): 3.13 ± 1.05 % ID/g
- Stomach uptake ([2]; 1 h post-injection): 0.58 ± 0.20 % ID/g
- Tail uptake ([2]; 1 h post-injection): 8.87 ± 4.26 % ID/g
- Testes uptake ([2]; 1 h post-injection): 2.74 ± 0.38 % ID/g
- Thyroid uptake ([2]; 1 h post-injection): 4.95 ± 0.79 % ID/g
- Tumor uptake ([2]; 1 h post-injection): 11.2 ± 3.33 % ID/g
- Tumor:Blood ratio ([2]; 1 h post-injection): 0.42 ± 0.11
- Tumor:Muscle ratio ([2]; 1 h post-injection): 8.04 ± 1.69
- Tumor:kidney ratio ([2]; 1 h post-injection): 0.75 ± 0.17
- Urine uptake ([2]; 1 h post-injection): 3.97 ± 2.56 % ID/g
- Adrenal glands uptake ([2]; 3 h post-injection): 4.46 ± 1.42 % ID/g
- Blood uptake ([2]; 3 h post-injection): 21.2 ± 2.21 % ID/g
- Bone uptake ([2]; 3 h post-injection): 1.54 ± 0.36 % ID/g
- Brain uptake ([2]; 3 h post-injection): 0.30 ± 0.06 % ID/g
- Fat uptake ([2]; 3 h post-injection): 2.47 ± 1.61 % ID/g
- Heart uptake ([2]; 3 h post-injection): 4.85 ± 0.67 % ID/g
- Intestine uptake ([2]; 3 h post-injection): 1.63 ± 0.18 % ID/g
- Kidneys uptake ([2]; 3 h post-injection): 17.5 ± 3.83 % ID/g
- Lacrimal uptake ([2]; 3 h post-injection): 1.44 ± 0.37 % ID/g
- Liver uptake ([2]; 3 h post-injection): 2.80 ± 0.46 % ID/g
- Lungs uptake ([2]; 3 h post-injection): 8.21 ± 1.21 % ID/g
- Muscle uptake ([2]; 3 h post-injection): 1.33 ± 0.24 % ID/g
- Pancreas uptake ([2]; 3 h post-injection): 1.96 ± 0.20 % ID/g
- Salivary uptake ([2]; 3 h post-injection): 3.45 ± 0.40 % ID/g
- Seminal uptake ([2]; 3 h post-injection): 1.15 ± 0.16 % ID/g
- Spleen uptake ([2]; 3 h post-injection): 2.11 ± 0.44 % ID/g
- Stomach uptake ([2]; 3 h post-injection): 0.79 ± 0.23 % ID/g
- Tail uptake ([2]; 3 h post-injection): 6.86 ± 2.42 % ID/g
- Testes uptake ([2]; 3 h post-injection): 3.02 ± 0.80 % ID/g
- Thyroid uptake ([2]; 3 h post-injection): 3.72 ± 0.33 % ID/g
- Tumor uptake ([2]; 3 h post-injection): 14.2 ± 1.99 % ID/g
- Tumor:Blood ratio ([2]; 3 h post-injection): 0.67 ± 0.07
- Tumor:Muscle ratio ([2]; 3 h post-injection): 10.8 ± 1.56
- Tumor:kidney ratio ([2]; 3 h post-injection): 0.83 ± 0.11
- Urine uptake ([2]; 3 h post-injection): 6.15 ± 3.78 % ID/g
Structure (SMILES): O=C([O-])CN1CCN(CC(=O)[O-])CCN(CC(=O)NCCCC[C@H](NC(=O)CNC(=O)CCCc2ccc(Br)cc2)C(=O)NC[C@H]2CC[C@H](C(=O)N[C@@H](Cc3ccc4ccccc4c3)C(=O)NCCCC[C@H](NC(=O)N[C@@H](CCC(=O)O)C(=O)O)C(=O)O)CC2)CCN(CC(=O)[O-])CC1.[68Ga+3] [^68Ga-HTK03058]

- change of tumor uptake from 1 h to 3 h post-injection [1]: increases over time
- blood retention (qualitative) [1]: significantly higher blood retention
- Adrenal glands uptake ([2]; 1 h post-injection): 4.57 ± 1.06 % ID/g
- Blood uptake ([2]; 1 h post-injection): 6.69 ± 0.27 % ID/g
- Bone uptake ([2]; 1 h post-injection): 0.41 ± 0.08 % ID/g
- Brain uptake ([2]; 1 h post-injection): 0.09 ± 0.01 % ID/g
- Fat uptake ([2]; 1 h post-injection): 2.14 ± 0.29 % ID/g
- Heart uptake ([2]; 1 h post-injection): 1.73 ± 0.14 % ID/g
- Intestine uptake ([2]; 1 h post-injection): 0.76 ± 0.05 % ID/g
- Kidneys uptake ([2]; 1 h post-injection): 91.1 ± 7.42 % ID/g
- Lacrimal uptake ([2]; 1 h post-injection): 0.05 ± 0.03 % ID/g
- Liver uptake ([2]; 1 h post-injection): 1.33 ± 0.27 % ID/g
- Lungs uptake ([2]; 1 h post-injection): 4.68 ± 0.35 % ID/g
- Muscle uptake ([2]; 1 h post-injection): 0.79 ± 0.06 % ID/g
- Pancreas uptake ([2]; 1 h post-injection): 1.00 ± 0.07 % ID/g
- Salivary uptake ([2]; 1 h post-injection): 3.95 ± 0.32 % ID/g
- Seminal uptake ([2]; 1 h post-injection): 0.66 ± 0.24 % ID/g
- Spleen uptake ([2]; 1 h post-injection): 8.56 ± 3.07 % ID/g
- Stomach uptake ([2]; 1 h post-injection): 0.34 ± 0.07 % ID/g
- Tail uptake ([2]; 1 h post-injection): 2.54 ± 0.33 % ID/g
- Testes uptake ([2]; 1 h post-injection): 1.35 ± 0.14 % ID/g
- Thyroid uptake ([2]; 1 h post-injection): 2.32 ± 0.10 % ID/g
- Tumor uptake ([2]; 1 h post-injection): 21.7 ± 2.48 % ID/g
- Tumor:Blood ratio ([2]; 1 h post-injection): 3.25 ± 0.43
- Tumor:Muscle ratio ([2]; 1 h post-injection): 27.4 ± 4.01
- Urine uptake ([2]; 1 h post-injection): 47.9 ± 46.6 % ID/g
- Adrenal glands uptake ([2]; 3 h post-injection): 2.76 ± 0.44 % ID/g
- Blood uptake ([2]; 3 h post-injection): 2.52 ± 0.69 % ID/g
- Bone uptake ([2]; 3 h post-injection): 0.15 ± 0.05 % ID/g
- Brain uptake ([2]; 3 h post-injection): 0.04 ± 0.02 % ID/g
- Fat uptake ([2]; 3 h post-injection): 1.28 ± 0.25 % ID/g
- Heart uptake ([2]; 3 h post-injection): 0.68 ± 0.16 % ID/g
- Intestine uptake ([2]; 3 h post-injection): 0.45 ± 0.10 % ID/g
- Kidneys uptake ([2]; 3 h post-injection): 96.4 ± 21.9 % ID/g
- Lacrimal uptake ([2]; 3 h post-injection): 0.00 ± 0.00 % ID/g
- Liver uptake ([2]; 3 h post-injection): 0.73 ± 0.41 % ID/g
- Lungs uptake ([2]; 3 h post-injection): 2.14 ± 0.42 % ID/g
- Muscle uptake ([2]; 3 h post-injection): 0.29 ± 0.04 % ID/g
- Pancreas uptake ([2]; 3 h post-injection): 0.47 ± 0.07 % ID/g
- Salivary uptake ([2]; 3 h post-injection): 1.45 ± 0.33 % ID/g
- Seminal uptake ([2]; 3 h post-injection): 0.24 ± 0.05 % ID/g
- Spleen uptake ([2]; 3 h post-injection): 2.56 ± 0.89 % ID/g
- Stomach uptake ([2]; 3 h post-injection): 0.19 ± 0.04 % ID/g
- Tail uptake ([2]; 3 h post-injection): 1.01 ± 0.23 % ID/g
- Testes uptake ([2]; 3 h post-injection): 0.73 ± 0.16 % ID/g
- Thyroid uptake ([2]; 3 h post-injection): 0.98 ± 0.25 % ID/g
- Tumor uptake ([2]; 3 h post-injection): 31.2 ± 2.11 % ID/g
- Tumor:Blood ratio ([2]; 3 h post-injection): 13.1 ± 3.76
- Tumor:Muscle ratio ([2]; 3 h post-injection): 108 ± 13.6
- Urine uptake ([2]; 3 h post-injection): 88.5 ± 45.6 % ID/g
Structure (SMILES): O=C([O-])CN1CCN(CC(=O)[O-])CCN(CC(=O)NCCCC[C@H](NC(=O)CNC(=O)CCCc2ccc([N+](=O)[O-])cc2)C(=O)NC[C@H]2CC[C@H](C(=O)N[C@@H](Cc3ccc4ccccc4c3)C(=O)NCCCC[C@H](NC(=O)N[C@@H](CCC(=O)O)C(=O)O)C(=O)O)CC2)CCN(CC(=O)[O-])CC1.[68Ga+3] [^68Ga-HTK03089]
